{
  "source": "patent US20140357512A1",
  "about": "“HISTONE DEACETYLASE (HDAC) BIOMARKERS IN MULTIPLE MYELOMA” (priority 2013, published 2014)",
  "test_system": "human myeloma cell line MM.1S",
  "assay": "SILAC acetylated-lysine peptide profiling, HDAC inhibitor vs DMSO (light/heavy ratio)",
  "type": "cell-based",
  "from_the_text": "An embodiment of the invention comprises utilizing the SILAC method in order to quantitate changes in protein expression between two or more populations of cells. The SILAC method is a technique based on mass spectrometry that detects differences in protein abundance among samples using non-radioactive isotopic labeling. The SILAC method is known in the art, and described in detail in Ong et al., “Stable Isotope Labeling by Amino Acids in Cell Culture, SILAC, as a Simple and Accurate Approach to Expression Proteomics”, Molecular & Cellular Proteomics, vol. 1, pp. 376-386 (2002), which is incorporated herein by reference in its entirety.\nBriefly, the SILAC method involves growing two populations of cells in cell culture. The first population of cells is grown in growth media containing normal amino acids (“normal media”). The second population of cells is grown in media lacking a standard essential amino acid (such as lysine), but is then supplemented with a non-radioactive, isotopically labeled form of that essential amino acid (such as lysine labeled with ^13C atoms, rather than normal ^12C atoms), which is called “heavy media”. When the two populations of cells are each growing in the medium, they incorporate the amino acids into all of their proteins. The growth of cells maintained in the heavy media is no different from that in normal media. All peptides containing the heavy amino acids are heavier than their normal counterparts. The cells from each of the two populations of cells are lysed. The lysates from each of the two cell populations are then combined. The combined cell lysates are then analyzed by mass spectrometry. Pairs of chemically identical peptides of different stable isotope composition can be differentiated in a mass spectrometer due to their difference in mass. The ratio of peak intensities in the mass spectrum for such peptide pairs reflects the abundance ratio for the two proteins.\nThis example describes SILAC studies that were performed to compare the effects of three different HDAC inhibitors (Compound A, Compound B, and tubastatin A) to a control on a human multiple myeloma cell line. The HDAC inhibitors were also compared amongst themselves to determine differences in their effects.\nA human myeloma cell line MM.1S was grown using either ^12C (light) or ^13C (heavy) lysine containing culture medium. The “heavy” cells were treated with DMSO as the control, and the “light” cells were treated with a single HDAC inhibitor at 37° C. for 6 hours. The heavy and light cells were lysed, and the lysates were mixed in 1:1 ratio and digested with the protease trypsin. The acetylated lysine containing peptides (due to the action of the HDAC inhibitor) in the digested peptide pool were captured by a non-specific anti-acetylated lysine antibody cocktail (the antibodies identify both light and heavy acetylated peptides), and subjected to mass spectrometry analysis in order to identify thousands of individual peptides.\nThousands of peptides were identified in pairs (^12C and ^13C) due to their known mass differences. The amino acid sequence and quantitative ratio (Light/Heavy) of a given peptide in two differentially treated cell lysates were then determined and annotated with their possible protein (gene) sources.\nAs stated above, three HDAC inhibitors (Compound A, Compound B, and Tubastatin A) were used. Thus, the SILAC method was performed three times, with a different HDAC inhibitor compared to a control each time. Accordingly, there are three pairs of quantitative data in the table below, i.e., Compound A:DMSO, Compound B:DMSO, and Tubastatin A:DMSO. A cut-off of 1.30 fold of change (increase or decrease) was then used to determine “changed” or “+” in the table, and any peptides with a fold of change less than 1.3 fold were determined to be “unchanged” or “0” in the table. Those peptides that were not identified were marked as “NA” in the table. […]",
  "data": [
    {"compound": "O=C(CCCCCCNC(=O)c1cnc(N(c2ccccc2)c2ccccc2)nc1)NO", "note": "[Compound A, 2-(diphenylamino)-N-(7-(hydroxyamino)-7-oxoheptyl)pyrimidine-5-carboxamide]", "values": [
      {"measurement": "light to heavy ratio (L/H ratio), log 2 scale, acetylated peptide VGDK(ac)[…] (SEQ ID NO: 773)", "setting": "10 kDa heat shock protein mitochondrial [70], gene HSPE1, drug:DMSO", "value": 1.00},
      {"measurement": "light to heavy ratio (L/H ratio) of acetylated peptide AGEATVK(ac)FLK (SEQ ID NO: 580)", "setting": "39S ribosomal protein L9 mitochondrial [165], gene MRPL9, inhibitor:DMSO", "value": 0.43, "unit": "log 2"},
      {"measurement": "light to heavy ratio (L/H ratio) of acetylated peptide IQEVLK(ac)HAR (SEQ ID NO: 264)", "setting": "39S ribosomal protein L20 mitochondrial [26], MRPL20, drug:DMSO", "value": 0.43, "unit": "log 2"},
      {"measurement": "light to heavy ratio (L/H ratio) of acetylated peptide YIGK(ac)TMDYR (SEQ ID NO: 535)", "setting": "39S ribosomal protein L24 mitochondrial [100], gene MRPL24, inhibitor:DMSO", "value": "−0.39", "unit": "log 2"},
      {"measurement": "light to heavy ratio (L/H ratio) of acetylated peptide FQK(ac)ELER (SEQ ID NO: 618)", "setting": "39S ribosomal protein L44 mitochondrial [43], gene MRPL44, inhibitor:DMSO", "value": 0.48, "unit": "log 2"},
      {"measurement": "light to heavy ratio (L/H ratio) of acetylated peptide FK(ac)LITEDVQGK (SEQ ID NO: 287)", "setting": "40S ribosomal protein S3a [85], SNORD73A, RPS3A, drug:DMSO", "value": 0.62, "unit": "log 2"},
      {"measurement": "light to heavy ratio (L/H ratio) of acetylated peptide KDVHMPK(ac)HPELADK (SEQ ID NO: 353)", "setting": "40S ribosomal protein S10 [31], RPS10, drug:DMSO", "value": 0.00, "unit": "log 2"},
      {"measurement": "light to heavy ratio (L/H ratio), log 2 scale, acetylated peptide K(ac)FGGPGAR (SEQ ID NO: 768)", "setting": "40S ribosomal protein S16 [131], gene RPS16, drug:DMSO", "value": 0.97},
      {"measurement": "light to heavy ratio (L/H ratio) of acetylated peptide NK(ac)[…] (SEQ ID NO: 559)", "setting": "40S ribosomal protein S17 [49], gene RPS17, RPS17L, inhibitor:DMSO", "value": 0.40, "unit": "log 2"},
      {"measurement": "light to heavy ratio (L/H ratio) of acetylated peptide ADGIVSK(ac)NF (SEQ ID NO: 599)", "setting": "40S ribosomal protein S21 [81], gene RPS21, inhibitor:DMSO", "value": 0.46, "unit": "log 2"},
      {"measurement": "light to heavy ratio (L/H ratio) of acetylated peptide GIVLEK(ac)VGVEAK (SEQ ID NO: 320)", "setting": "40S ribosomal protein S23 [54], RPS23, drug:DMSO", "value": 1.00, "unit": "log 2"},
      {"measurement": "light to heavy ratio (L/H ratio), log 2 scale, acetylated peptide K(ac)FGQGSR (SEQ ID NO: 809)", "setting": "40S ribosomal protein S29 [13], gene RPS29, drug:DMSO", "value": 1.00},
      {"measurement": "light to heavy ratio (L/H ratio), log 2 scale, acetylated peptide ATWK(ac)SNYFLK (SEQ ID NO: 760)", "setting": "60S acidic ribosomal protein P0 [10], gene RPLP0, drug:DMSO", "value": 0.91},
      {"measurement": "light to heavy ratio (L/H ratio), log 2 scale, acetylated peptide ALEK(ac)IDLK (SEQ ID NO: 813)", "setting": "60S ribosomal protein L3 [362], gene SNORD43, RPL3, drug:DMSO", "value": 1.00},
      {"measurement": "light to heavy ratio (L/H ratio) of acetylated peptide IPK(ac)HLTDAYFK (SEQ ID NO: 259)", "setting": "60S ribosomal protein L6 [211], RPL6, drug:DMSO", "value": 0.40, "unit": "log 2"},
      {"measurement": "light to heavy ratio (L/H ratio), log 2 scale, acetylated peptide AVDSQILPK(ac)IK (SEQ ID NO: 761)", "setting": "60S ribosomal protein L6 [261], gene RPL6, drug:DMSO", "value": 0.92},
      {"measurement": "light to heavy ratio (L/H ratio) of acetylated peptide HGYIK(ac)GIVK (SEQ ID NO: 556)", "setting": "60S ribosomal protein L8 [42], gene RPL8, inhibitor:DMSO", "value": 0.40, "unit": "log 2"},
      {"measurement": "light to heavy ratio (L/H ratio) of acetylated peptide IDK(ac)PILK (SEQ ID NO: 506)", "setting": "60S ribosomal protein L8 [177], gene RPL8, inhibitor:DMSO", "value": "−0.65", "unit": "log 2"},
      {"measurement": "light to heavy ratio (L/H ratio) of acetylated peptide GPLDK(ac)WR (SEQ ID NO: 622)", "setting": "60S ribosomal protein L10-like [208], gene RPL10L, inhibitor:DMSO", "value": 0.48, "unit": "log 2"},
      {"measurement": "light to heavy ratio (L/H ratio), log 2 scale, acetylated peptide YMVK(ac)SCGK (SEQ ID NO: 811)", "setting": "60S ribosomal protein L10 [78], gene SNORA70, RPL10, drug:DMSO", "value": 1.00},
      {"measurement": "light to heavy ratio (L/H ratio), log 2 scale, acetylated peptide VDEVK(ac)STIK (SEQ ID NO: 805)", "setting": "60S ribosomal protein L10a [152], gene RPL10A, drug:DMSO", "value": 1.00},
      {"measurement": "light to heavy ratio (L/H ratio) of acetylated peptide VITEEEK(ac)NFK (SEQ ID NO: 522)", "setting": "60S ribosomal protein L13 [174], gene RPL13, inhibitor:DMSO", "value": "−0.46", "unit": "log 2"},
      {"measurement": "light to heavy ratio (L/H ratio) of acetylated peptide LAAIVAK(ac)QVLLGR (SEQ ID NO: 505)", "setting": "60S ribosomal protein L13a [25], gene SNORD32A, RPL13A, SNORD33, SNORD34, inhibitor:DMSO", "value": "−0.67", "unit": "log 2"},
      {"measurement": "light to heavy ratio (L/H ratio) of acetylated peptide K(ac)FAYLGR (SEQ ID NO: 614)", "setting": "60S ribosomal protein L13a [134], gene SNORD32A, RPL13A, SNORD33, SNORD34, inhibitor:DMSO", "value": 0.47, "unit": "log 2"},
      {"measurement": "light to heavy ratio (L/H ratio), log 2 scale, acetylated peptide LAHEVGWK(ac)[…] (SEQ ID NO: 812)", "setting": "60S ribosomal protein L13a [148], gene SNORD32A, RPL13A, SNORD33, SNORD34, drug:DMSO", "value": 1.00},
      {"measurement": "light to heavy ratio (L/H ratio) of acetylated peptide […](ac)PVHK (SEQ ID NO: 581)", "setting": "60S ribosomal protein L15 [153], gene RPL15, inhibitor:DMSO", "value": 0.43, "unit": "log 2"},
      {"measurement": "light to heavy ratio (L/H ratio) of acetylated peptide GHK(ac)FHHTIGGSR (SEQ ID NO: 519)", "setting": "60S ribosomal protein L15 [179], gene RPL15, inhibitor:DMSO", "value": "−0.51", "unit": "log 2"},
      {"measurement": "light to heavy ratio (L/H ratio), log 2 scale, acetylated peptide SFVK(ac)[…] (SEQ ID NO: 770)", "setting": "60S ribosomal protein L27 [73], gene RPL27, drug:DMSO", "value": 0.99},
      {"measurement": "light to heavy ratio (L/H ratio), log 2 scale, acetylated peptide YSVDIPLDK(ac)TVVNK (SEQ ID NO: 807)", "setting": "60S ribosomal protein L27 [93], gene RPL27, drug:DMSO", "value": 1.00},
      {"measurement": "light to heavy ratio (L/H ratio), log 2 scale, acetylated peptide TVVNK(ac)DVFR (SEQ ID NO: 766)", "setting": "60S ribosomal protein L27 [98], gene RPL27, drug:DMSO", "value": 0.94},
      {"measurement": "light to heavy ratio (L/H ratio) of acetylated peptide NCSSFLIK(ac)R (SEQ ID NO: 558)", "setting": "60S ribosomal protein L28 [19], gene RPL28, inhibitor:DMSO", "value": 0.40, "unit": "log 2"},
      {"measurement": "light to heavy ratio (L/H ratio) of acetylated peptide IHGVGFK(ac)K (SEQ ID NO: 542)", "setting": "60S ribosomal protein L31 [39], gene RPL31, inhibitor:DMSO", "value": 0.39, "unit": "log 2"},
      {"measurement": "light to heavy ratio (L/H ratio), log 2 scale, acetylated peptide LNK(ac)AVWAK (SEQ ID NO: 808)", "setting": "60S ribosomal protein L31 [70], gene RPL31, drug:DMSO", "value": 1.00},
      {"measurement": "light to heavy ratio (L/H ratio) of acetylated peptide […](ac)ENLR (SEQ ID NO: 610)", "setting": "60S ribosomal protein L35 [66], gene RPL35, inhibitor:DMSO", "value": 0.47, "unit": "log 2"},
      {"measurement": "light to heavy ratio (L/H ratio) of acetylated peptide LWSK(ac)AIFAGYK (SEQ ID NO: 538)", "setting": "60S ribosomal protein L35a [8], gene RPL35A, inhibitor:DMSO", "value": 0.38, "unit": "log 2"}
    ]}
  ]
}
